{
  "source": "PubChem BioAssay AID1259407",
  "about": "(Chemical Carcinogenesis Research Information System (CCRIS), 2018)",
  "tested_on": "CCRIS mutagenicity, Ames/micronucleus/aberration tests",
  "test": "CCRIS mutagenicity studies",
  "key": {"[1]": {"settings": "Test System: AMES SALMONELLA TYPHIMURIUM, Strain/Indicator: TA97, Metabolic Activation: NONE, Method: PREINCUBATION"}, "[2]": {"settings": "Test System: AMES SALMONELLA TYPHIMURIUM, Strain/Indicator: TA98, Metabolic Activation: NONE, Method: PREINCUBATION"}, "[3]": {"settings": "Test System: AMES SALMONELLA TYPHIMURIUM, Strain/Indicator: TA100, Metabolic Activation: NONE, Method: PREINCUBATION"}, "[4]": {"settings": "Test System: AMES SALMONELLA TYPHIMURIUM, Strain/Indicator: TA1535, Metabolic Activation: NONE, Method: PREINCUBATION"}},
  "note": "Activity calls are given as the source filed them. The rule behind the calls is not given here.",
  "data": [
    {"molecule": "O=C(O)/C=C/C=C/C(=O)O", "values": [
      {"measurement": "mutagenic call", "setting": "End Point: IN VITRO CHROMOSOMAL ABERRATIONS, Test System: HUMAN PERIPHERAL LYMPHOCYTES, Metabolic Activation: NONE", "value": "active; positive (ploidy changes)"},
      {"measurement": "mutagenic call", "setting": "End Point: IN VITRO CHROMOSOMAL ABERRATIONS, Test System: HUMAN PERIPHERAL LYMPHOCYTES, Metabolic Activation: NONE, Method: FISH- DUAL COLOR PROBES", "value": "inactive; negative for translocations"},
      {"measurement": "mutagenic call", "setting": "[1]", "value": "inactive; negative"},
      {"measurement": "mutagenic call", "setting": "Test System: AMES SALMONELLA TYPHIMURIUM, Strain/Indicator: TA97, Metabolic Activation: RAT, LIVER, S-9, AROCLOR 1254, Method: PREINCUBATION", "value": "inactive; negative"},
      {"measurement": "mutagenic call", "setting": "Test System: AMES SALMONELLA TYPHIMURIUM, Strain/Indicator: TA97, Metabolic Activation: RAT, LIVER, S-9, PHENOBARBITAL AND 5,6-BENZOFLAVONE, Method: PREINCUBATION", "value": "inactive; negative"},
      {"measurement": "mutagenic call", "setting": "[2]", "value": "inactive; negative"},
      {"measurement": "mutagenic call", "setting": "Test System: AMES SALMONELLA TYPHIMURIUM, Strain/Indicator: TA98, Metabolic Activation: RAT, LIVER, S-9, AROCLOR 1254, Method: PREINCUBATION", "value": "inactive; negative"},
      {"measurement": "mutagenic call", "setting": "Test System: AMES SALMONELLA TYPHIMURIUM, Strain/Indicator: TA98, Metabolic Activation: RAT, LIVER, S-9, PHENOBARBITAL AND 5,6-BENZOFLAVONE, Method: PREINCUBATION", "value": "inactive; negative"},
      {"measurement": "mutagenic call", "setting": "[3]", "value": "inactive; negative"},
      {"measurement": "mutagenic call", "setting": "Test System: AMES SALMONELLA TYPHIMURIUM, Strain/Indicator: TA100, Metabolic Activation: RAT, LIVER, S-9, AROCLOR 1254, Method: PREINCUBATION", "value": "inactive; negative"},
      {"measurement": "mutagenic call", "setting": "Test System: AMES SALMONELLA TYPHIMURIUM, Strain/Indicator: TA100, Metabolic Activation: RAT, LIVER, S-9, PHENOBARBITAL AND 5,6-BENZOFLAVONE, Method: PREINCUBATION", "value": "inactive; negative"},
      {"measurement": "mutagenic call", "setting": "Test System: AMES SALMONELLA TYPHIMURIUM, Strain/Indicator: TA102, Metabolic Activation: NONE, Method: PREINCUBATION", "value": "inactive; negative"},
      {"measurement": "mutagenic call", "setting": "Test System: AMES SALMONELLA TYPHIMURIUM, Strain/Indicator: TA102, Metabolic Activation: RAT, LIVER, S-9, AROCLOR 1254, Method: PREINCUBATION", "value": "inactive; negative"},
      {"measurement": "mutagenic call", "setting": "Test System: AMES SALMONELLA TYPHIMURIUM, Strain/Indicator: TA102, Metabolic Activation: RAT, LIVER, S-9, PHENOBARBITAL AND 5,6-BENZOFLAVONE, Method: PREINCUBATION", "value": "inactive; negative"},
      {"measurement": "mutagenic call", "setting": "Test System: AMES SALMONELLA TYPHIMURIUM, Strain/Indicator: TA104, Metabolic Activation: NONE, Method: PREINCUBATION", "value": "inactive; negative"},
      {"measurement": "mutagenic call", "setting": "Test System: AMES SALMONELLA TYPHIMURIUM, Strain/Indicator: TA104, Metabolic Activation: RAT, LIVER, S-9, AROCLOR 1254, Method: PREINCUBATION", "value": "inactive; negative"},
      {"measurement": "mutagenic call", "setting": "Test System: AMES SALMONELLA TYPHIMURIUM, Strain/Indicator: TA104, Metabolic Activation: RAT, LIVER, S-9, PHENOBARBITAL AND 5,6-BENZOFLAVONE, Method: PREINCUBATION", "value": "inactive; negative"},
      {"measurement": "mutagenic call", "setting": "[4]", "value": "inactive; negative"},
      {"measurement": "mutagenic call", "setting": "Test System: AMES SALMONELLA TYPHIMURIUM, Strain/Indicator: TA1535, Metabolic Activation: RAT, LIVER, S-9, AROCLOR 1254, Method: PREINCUBATION", "value": "inactive; negative"},
      {"measurement": "mutagenic call", "setting": "Test System: CHINESE HAMSTER V-79, Strain/Indicator: V-79 (HGPRT)/8-AZAGUANINE, Metabolic Activation: NONE", "value": "inactive; negative"},
      {"measurement": "mutagenic call", "setting": "Test System: CHINESE HAMSTER V-79, Strain/Indicator: V-79/6-THIOGUANINE, Metabolic Activation: NONE", "value": "inactive; negative"},
      {"measurement": "mutagenic call", "setting": "Test System: E. COLI, Strain/Indicator: WP2 UVRA, Metabolic Activation: NONE, Method: PREINCUBATION", "value": "inactive; negative"},
      {"measurement": "mutagenic call", "setting": "Test System: E. COLI, Strain/Indicator: WP2 UVRA, Metabolic Activation: RAT, LIVER, S-9, AROCLOR 1254, Method: PREINCUBATION", "value": "inactive; negative"}
    ]},
    {"molecule": "C[C@@H]1C[C@@H]([C@H](O)CC2CC(=O)NC(=O)C2)C(=O)[C@@H](C)C1", "values": [
      {"measurement": "mutagenic call", "setting": "Test System: AMES SALMONELLA TYPHIMURIUM, Strain/Indicator: TA97, Metabolic Activation: HAMSTER, LIVER, S-9, AROCLOR 1254 (10 OR 30%), Method: PREINCUBATION", "value": "inactive; negative"},
      {"measurement": "mutagenic call", "setting": "[1]", "value": "inactive; negative"},
      {"measurement": "mutagenic call", "setting": "Test System: AMES SALMONELLA TYPHIMURIUM, Strain/Indicator: TA97, Metabolic Activation: RAT, LIVER, S-9, AROCLOR 1254 (10 OR 30%), Method: PREINCUBATION", "value": "inactive; negative"},
      {"measurement": "mutagenic call", "setting": "Test System: AMES SALMONELLA TYPHIMURIUM, Strain/Indicator: TA98, Metabolic Activation: HAMSTER, LIVER, S-9, AROCLOR 1254 (10 OR 30%), Method: PREINCUBATION", "value": "inactive; negative"},
      {"measurement": "mutagenic call", "setting": "[2]", "value": "inactive; negative"},
      {"measurement": "mutagenic call", "setting": "Test System: AMES SALMONELLA TYPHIMURIUM, Strain/Indicator: TA98, Metabolic Activation: NONE, Method: STANDARD PLATE", "value": "inactive; negative"},
      {"measurement": "mutagenic call", "setting": "Test System: AMES SALMONELLA TYPHIMURIUM, Strain/Indicator: TA98, Metabolic Activation: RAT, LIVER, S-9, AROCLOR 1254 (10 OR 30%), Method: PREINCUBATION", "value": "inactive; negative"},
      {"measurement": "mutagenic call", "setting": "Test System: AMES SALMONELLA TYPHIMURIUM, Strain/Indicator: TA98, Metabolic Activation: RAT, LIVER, S-9, AROCLOR, Method: STANDARD PLATE", "value": "inactive; negative"},
      {"measurement": "mutagenic call", "setting": "Test System: AMES SALMONELLA TYPHIMURIUM, Strain/Indicator: TA100, Metabolic Activation: HAMSTER, LIVER, S-9, AROCLOR 1254 (10 OR 30%), Method: PREINCUBATION", "value": "inactive; negative"},
      {"measurement": "mutagenic call", "setting": "[3]", "value": "inactive; negative"},
      {"measurement": "mutagenic call", "setting": "Test System: AMES SALMONELLA TYPHIMURIUM, Strain/Indicator: TA100, Metabolic Activation: NONE, Method: STANDARD PLATE", "value": "inactive; negative"},
      {"measurement": "mutagenic call", "setting": "Test System: AMES SALMONELLA TYPHIMURIUM, Strain/Indicator: TA100, Metabolic Activation: RAT, LIVER, S-9, AROCLOR 1254 (10 OR 30%), Method: PREINCUBATION", "value": "inactive; negative"},
      {"measurement": "mutagenic call", "setting": "Test System: AMES SALMONELLA TYPHIMURIUM, Strain/Indicator: TA100, Metabolic Activation: RAT, LIVER, S-9, AROCLOR, Method: STANDARD PLATE", "value": "inactive; negative"},
      {"measurement": "mutagenic call", "setting": "Test System: AMES SALMONELLA TYPHIMURIUM, Strain/Indicator: TA1535, Metabolic Activation: HAMSTER, LIVER, S-9, AROCLOR 1254 (10 OR 30%), Method: PREINCUBATION", "value": "inactive; negative"},
      {"measurement": "mutagenic call", "setting": "[4]", "value": "inactive; negative"},
      {"measurement": "mutagenic call", "setting": "Test System: AMES SALMONELLA TYPHIMURIUM, Strain/Indicator: TA1535, Metabolic Activation: RAT, LIVER, S-9, AROCLOR 1254 (10 OR 30%), Method: PREINCUBATION", "value": "inactive; negative"},
      {"measurement": "mutagenic call", "setting": "Test System: AMES SALMONELLA TYPHIMURIUM, Strain/Indicator: TA1537, Metabolic Activation: HAMSTER, LIVER, S-9, AROCLOR 1254 (30%), Method: PREINCUBATION", "value": "inactive; negative"},
      {"measurement": "mutagenic call", "setting": "Test System: AMES SALMONELLA TYPHIMURIUM, Strain/Indicator: TA1537, Metabolic Activation: NONE, Method: PREINCUBATION", "value": "inactive; negative"},
      {"measurement": "mutagenic call", "setting": "Test System: AMES SALMONELLA TYPHIMURIUM, Strain/Indicator: TA1537, Metabolic Activation: RAT, LIVER, S-9, AROCLOR 1254 (30%), Method: PREINCUBATION", "value": "inactive; negative"},
      {"measurement": "mutagenic call", "setting": "Test System: MOUSE LYMPHOMA, Strain/Indicator: L5178Y (TK+/TK-), Metabolic Activation: NONE, Method: SUSPENSION/PLATE", "value": "active; positive"}
    ]}
  ]
}
